Where “and” joins values, the source holds several entries; their conditions need not be identical. Identical values can stand only once. Entries after “also recorded” stand apart in the source; their conditions may differ. Like-named read-outs stand apart in the source and are kept apart here.
Assays:
Format in all cases: cell-based, human
[1] = tested on: PGI2 synthesis in HUVEC; assay: PGI2 assay (radioimmunoassay of 6-keto-PGF1a) in HUVEC; conditions: for mean fold increase in 6-keto PGF1a above control unstimulated level: 60 min, 60 ng/ml PIGF, 1 U/ml thrombin
Procedure: (§1) Cell Culture: HUVECs were obtained either from Clonetics and cultured in the manufacturer's own medium supplemented with 2% FBS, or were grown from fresh umbilical cords by collagenase digestion and cultured on 1% gelatin-coated plates in medium 199 supplemented with 20% FCS and endothelial cell growth supplement (Wheeler-Jones et al, Biochem. J. (1996) 315:407-416). For experimental purposes, primary cultures of HUVEC were dispersed by treatment with 0.05% trypsin/0.02% EDTA for 5 min at 37° C. and then replated in either 90 mm, 60 mm or 35 mm plastic dishes, or onto 24-well plates. Cultures were maintained in a humidified atmosphere containing 5% CO2 and […] at 37° C. and used after 6-8 days or when the cells had formed a confluent monolayer. […] The PGI2 content of cell supernatants was quantified by radioimmunoassay of 6-keto-PGF1a, the stable breakdown product of PGI2 as previously described (Wheeler-Jones et al, supra). Arachidonic Acid Release: Arachidonic acid release was determined essentially as described (Domin and Rozengurt, J. Biol. Chem. (1993) 268:8927-8934.). Confluent HUVEC cultures were incubated for 24 h with [5,6,8,9,11,12,14,15-^3H]arachidonic acid (1 mCi/ml, 211 Ci/mmol). […] After treatment, the medium was removed, centrifuged in a microcentrifuge at 16,000×g for 5 min, and the radioactivity in the supernatant was determined by counting in a scintillation counter. Western Blotting Procedures: Treatment of quiescent cultures of cells with factors, and cell lysis were performed as described above and in the Results and Figure Legends. After SDS-PAGE, proteins were transferred to Immobilon membranes (Millipore Inc.). For MAP kinase assays, membranes were blocked using 5% non-fat dried milk in PBS, pH 7.2, and incubated for 3-5 h in PBS/0.05% Tween-20 containing primary antibody (1 mg/ml) as indicated. For immunoblots with antibody to cPLA2, membranes were blocked for 3 h in TBST50 mM Tris/HCl, 150 mM NaCl, 0.02% (v/v) Tween 20 pH 7.4 (TBST) containing 0.2% (w/v) 1-block (Tropix), then incubated with primary antiserum in TBST. Membranes were then washed six times (10 min each wash) in TBST and incubated for 1 hour in TBST containing HRP-conjugated secondary antibody. Immunoreactive bands were visualized by chemiluminescence using HRP-conjugated anti-mouse or anti-rabbit IgG and ECL™ reagent according to the manufacturers instructions. MAP Kinase Assay: Cells were treated with factors as indicated, washed rapidly twice with ice-cold PBS and immediately extracted by the addition of […] boiling 2×SDS-PAGE sample buffer. Cell extracts were collected by scraping, heated to 95° C. for 10 min and run on 12.5% acrylamide SDS-PAGE gels. Following transfer to Immobilon membranes, proteins were immunoblotted with an antibody which specifically recognizes p42 and p44 MAP kinases (Erk-1 and Erk-2) activated by phosphorylation at Tyr204 (Payne e al, EMBO J. (1991) 10:885-892.). cPLA2 Mobility Shift Assay: Confluent quiescent HUVECs in 60 mm dishes were washed twice in serum-free medium 199 (pH 7.4) and subsequently exposed, for the times indicated, to medium containing factors as detailed in the Figure legends. Cell lysates were prepared as previously described (Wheeler-Jones et al, supra). Proteins were separated by SDS-PAGE (10% acrylamide) and after transfer to membranes were immunoblotted with polyclonal anti-serum to cPLA2 (BorschHaubold et al, J. Biol. Chem. (1995) 270: 25885-25892; and Kramer et al, J. Biol. Chem. (1996) 271:27723-27729). Assay of vWF Secretion: vWF secretion was measured by ELISA (Wheeler-Jones et al, supra) in samples of medium obtained from confluent cultures of HUVECs which had been treated with factors, as indicated. Plates were coated with the anti-vWF mAb CLBRAg35, and the lower detection limit of the assay was approximately 1.0 mU/ml. Materials: Recombinant VEGF was obtained either from UBI or from R & D Systems. […]

[2] = tested on: arachidonic acid release in HUVEC; assay: Arachidonic acid release from prelabelled HUVEC
Procedure: as §1

[3] = tested on: cPLA2; assay: cPLA2 mobility shift assay in HUVEC; set-up: effect of PD98059 on VEGF-stimulated increase in slow-migrating cPLA2: dose or concentration left out as unconfirmed
Procedure: as §1

[4] = tested on: vWF secretion by HUVECs; assay: vWF secretion by ELISA in HUVEC; set-up: effect of PD98059 on VEGF-induced vWF secretion: dose or concentration left out as unconfirmed
Procedure: as §1

[5] = tested on: p42/p44 MAP kinases; assay: MAP kinase assay (phospho-p42/p44 immunoblot) in HUVEC; set-up: inhibition of VEGF-stimulated MAP kinase activity: dose or concentration left out as unconfirmed
Procedure: as §1

[6] = tested on: 205 kD protein corresponding to VEGF receptor; assay: Anti-phosphotyrosine immunoprecipitation/immunoblot in HUVEC; conditions: HUVEC
Procedure: In some experiments, cells were pretreated for 1 h with 100 μM L-NAME and subsequently treated either with or without. […] The medium was removed and cells were rapidly lysed at 4° C. by addition of 10 mM Tris/HCl (pH 7.6), 5 mM EDTA, 50 mM NaCl, 30 mM sodium pyrophosphate, 50 mM NaF, 0.1 mM Na3VO4, 1 mM PMSF and 1% Triton X-100 (lysis buffer). Lysates were clarified by centrifugation at 15000×g for 10 min, and immunoprecipitations were performed by incubating clarified lysates with PY20 anti-phosphotyrosine mAb for 2 h at […] Immunoprecipitates were collected by incubating lysates for a further 1 hour with protein A-agarose. Immunoprecipitates were washed three times with lysis buffer and proteins were then extracted with 2×SDS-PAGE sample buffer. After SDS-PAGE, immunoprecipitated proteins were transferred to membranes and then immunoblotted with PY20 mAb.

[7] = tested on: NO production in HUVEC; assay: Nitrite (NO) production in HUVEC, capillary detection method
Procedure: Nitrite production was measured using capillary detection method (Leone et al, in Methods in Nitric Oxide Research, Feelisch and Stanler, eds. John Wiley & Sons, New York (1996) 499-508).

[8] = tested on: HUVECs; assay: Migration of HUVECs in chemotaxis chambers; conditions: PIGF 5-60 ng/ml

thrombin [reference compound]
mean fold increase in 6-keto PGF1a above control unstimulated level ([1]; 25 ng/ml VEGF): 4.4 fold | mean increase in release of labelled arachidonic acid above basal unstimulated level ([2]; four independent experiments): 3.4 fold | cPLA2 mobility shift (in words) [3]: striking shift

COc1cccc(-c2cc(=O)c3ccccc3o2)c1N [PD98059, reference compound]
concentration of maximum inhibitory effect on stimulated PGI2 production [1]: 10 µM | effect of PD98059 on VEGF-induced PGI2 production ([1]; 30 mM PD98059 30 min pretreatment, 25 ng/ml VEGF 60 min): completely inhibited; also recorded: complete inhibition | effect of PD98059 on thrombin-induced PGI2 production ([1]; 30 mM PD98059 30 min pretreatment, 1 U/ml thrombin 60 min): completely inhibited | inhibitor concentration at which PGI2 production fell below control values ([1]; VEGF-treated cells): greater than 10 mM | PGI2 production in control, unstimulated cells ([1]; basal): abolished | effect of PD98059 on VEGF-stimulated increase in slow-migrating cPLA2 [3]: completely blocked; also recorded: complete inhibition | effect of PD98059 on VEGF-induced vWF secretion [4]: neither prevented nor significantly reduced; also recorded: no effect | effect of PD98059 on basal or thrombin-stimulated vWF secretion [4]: no effect | concentration reducing MAP kinase activity to control, unstimulated level [5]: 10 to 20 mM | inhibition of VEGF-stimulated MAP kinase activity [5]: greater than 50% | effect of PD98059 on VEGF stimulation of p42/p44 MAP kinases ([5]; 30 min pretreatment): completely inhibited; also recorded: complete inhibition

VEGF
concentration range inducing tyrosine phosphorylation of 205 kDa protein [6]: 1 to 25 ng/mL | time for which NO production was sustained [7]: up to 2 hours | half-maximal effect on NO production ([7]; HUVEC, nitrite levels): 5 ng/mL | nitrite production level ([7]; VEGF 2.5 ng/ml, 10 minutes (first of two levels)): ~19 µM | nitrite production level ([7]; VEGF 25 ng/ml for times up to 2 h): 1.8 to 2 µM | nitrite production level ([7]; VEGF 25 ng/ml, 10 minutes (second of two levels)): ~2.1 µM | earliest time effect on NO production seen ([7]; after addition of VEGF): 30 s | time of maximum NO production ([7]; after addition of VEGF): 5 min | time for which PGI2 production was sustained [1]: up to 2 h | time up to which PGI2 production continued to increase [1]: up to 60 min | PGI2 synthesis at 25 ng/ml ([1]; 25 ng/ml VEGF): small decline | mean fold increase in 6-keto PGF1a above control unstimulated level ([1]; 25 ng/ml VEGF): 2.0 fold and 2 fold | concentration at which increase in PGI2 synthesis was detectable ([1]; 60 min incubation): 5 ng/mL | concentration of maximum PGI2 synthesis ([1]; 60 min incubation): 15 ng/mL | half-maximal PGI2 synthesis ([1]; 60 min incubation): 10 ng/mL | concentration of maximum arachidonic acid release [2]: 10 to 20 ng/mL | half-maximum effect on arachidonic acid release [2]: 2.5 to 5 ng/mL | mean increase in release of labelled arachidonic acid above basal unstimulated level [2]: 1.6 fold | time at which arachidonic acid release was evident [2]: 10 min | time of half-maximum arachidonic acid mobilization [2]: 10 min | time of maximum arachidonic acid release [2]: 30 min | cPLA2 mobility shift (in words) [3]: marked increase in the immunoreactivity of the slow-migrating form | concentration giving noticeable increase in slow-migrating cPLA2 [3]: 2.5 ng/mL | concentration of maximum increase in slow-migrating cPLA2 [3]: 5 to 10 ng/mL and 5 ng/mL | time at which cPLA2 shift to slow-migrating form was detectable ([3]; VEGF 25 ng/ml): 2 min | time for which cPLA2 shift was sustained ([3]; VEGF 25 ng/ml): up to 60 min | time of maximum cPLA2 shift ([3]; VEGF 25 ng/ml): 15 min | vWF secretion (in words) [4]: comparable to, though consistently weaker than, that of thrombin | vWF level above control cells ([4]; 25 ng/ml VEGF, 3 h): 2.5 fold | concentration of maximum effect on vWF secretion ([4]; highest concentration tested): 25 ng/mL | concentration of maximum MAP kinase activation ([5]; 15 min exposure): 10 ng/mL and 5 to 10 ng/mL | concentration up to which maximum MAP kinase effect was sustained ([5]; 15 min exposure): up to 50 ng/ml | chemotaxis of HUVECs [8]: concentration-dependent increase in chemotaxis

B1: PIGF: VEGF-related factor, a specific ligand for the Flt-1 VEGF receptor; recombinant (protein)
chain: AVPPQQWALSAGNGSSEVEVVPFQEVWGRSYCRALERLVDVVSEYPSEVEHMFSPSCVSLLRCTGCCGDENLHCVPVETANVTMQLLKIRSGDRPSYVELTFSQHVRCECRPLREKMKPERCGDAVPRR
mean fold increase in 6-keto PGF1a above control unstimulated level ([1]; 25 ng/ml VEGF): 1.3 fold | arachidonic acid release (in words) ([2]; prelabelled HUVECs): no detectable significant increase | cPLA2 mobility shift (in words) [3]: no detectable shift | vWF secretion (in words) [4]: no detectable stimulation | MAP kinase activity (in words) ([5]; PIGF 1-60 ng/ml): little, if any, detectable increase; also recorded: little effect | chemotaxis of HUVECs [8]: no detectable increase

From patent US7320679B2, “Therapeutic use of growth factor, and delivery device, especially for the treatment of intimal hyperplasia” (Ark Therapeutics, Ltd., priority 1996, dated 2008)
